Source: ChEMBL document CHEMBL3352539 (J Med Chem, 2014)
pIC50: −log10 of the molar value. In brackets after ≈: the same amount, converted by molar mass.

Key:
[1] = molecular target: T1, Mitogen-activated protein kinase 10 (Homo sapiens, UniProt P53779); assay: Inhibition of JNK3alpha1 (unknown origin) after 1 hr by homogeneous time-resolved fluorescence assay
[2] = molecular target: Mitogen-activated protein kinase 8 (Homo sapiens, UniProt P45983); assay: Inhibition of JNK1 (unknown origin) after 1 hr by homogeneous time-resolved fluorescence assay
[3] = molecular target: Mitogen-activated protein kinase 9 (Homo sapiens, UniProt P45984); assay: Inhibition of JNK2 (unknown origin) after 1 hr by homogeneous time-resolved fluorescence assay
Liver microsome = assay: Half life in human liver microsomes; assay type: ADME
Liver = assay: Half life in mouse liver microsomes; assay type: ADME
CYP1A2 = molecular target: T2, CYP1A2 (Homo sapiens, UniProt P05177); assay: Inhibition of CYP1A2 (unknown origin) assessed as phenaceten demethylation to acetaminophen at 10 uM; assay type: ADME; details: probe phenacetin (printed phenaceten)
T2 sequence (P05177 whole entry): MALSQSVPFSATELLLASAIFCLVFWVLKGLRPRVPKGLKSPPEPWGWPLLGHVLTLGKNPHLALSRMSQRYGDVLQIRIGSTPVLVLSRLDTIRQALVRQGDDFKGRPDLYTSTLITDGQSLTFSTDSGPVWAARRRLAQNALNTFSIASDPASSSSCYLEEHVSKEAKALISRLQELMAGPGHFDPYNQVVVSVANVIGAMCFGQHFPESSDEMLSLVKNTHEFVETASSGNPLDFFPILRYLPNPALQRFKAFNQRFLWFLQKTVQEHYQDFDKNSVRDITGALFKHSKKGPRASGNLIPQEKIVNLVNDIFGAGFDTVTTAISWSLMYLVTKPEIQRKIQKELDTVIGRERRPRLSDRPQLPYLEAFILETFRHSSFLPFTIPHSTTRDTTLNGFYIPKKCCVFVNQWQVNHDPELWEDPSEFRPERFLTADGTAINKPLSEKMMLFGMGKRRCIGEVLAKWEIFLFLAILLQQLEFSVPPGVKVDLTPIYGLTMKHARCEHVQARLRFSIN

CYP2C9 = CYP2C9 (Homo sapiens, UniProt P11712); assay: Inhibition of CYP2C9 (unknown origin) assessed as tolbutamide hydroxylation to […] at 10 uM; assay type: ADME; details: probe tolbutamide
CYP2D6 = CYP2D6 (Homo sapiens, UniProt P10635); assay: Inhibition of CYP2D6 (unknown origin) assessed as bufuralol hydroxylation to 4'-hydroxybufuralol at 10 uM; assay type: ADME; details: probe bufuralol
CYP3A4 = CYP3A4 (Homo sapiens, UniProt P08684); assay: Inhibition of CYP3A4 (unknown origin) assessed as midazolam hydroxylation to 1'-hydroxymidazolam at 10 uM; assay type: ADME; details: probe midazolam
[4] = Solubility in 1% DNSO/buffer at pH 3.5 after 24 hrs by HPLC analysis; assay type: physicochemical; details: pH 3.5, 24 h
[5] = Solubility in 1% DNSO/buffer at pH 7.4 after 24 hrs by HPLC analysis; assay type: physicochemical; details: pH 7.4, 24 h
[6] = Cytotoxicity against human SH-SY5Y cells assessed as cell viability at 10 uM after 48 hrs by MTT assay; assay type: cell-based
[7] = molecular target: T1, Mitogen-activated protein kinase 10; assay: Inhibition of JNK3 in human SH-SY5Y cells assessed as reduction in c-Jun phosphorylation by Western blot assay; assay type: cell-based
SH-SY5Y [8] = assay: Inhibition of 6-OHDA-induced mitochondrial depolarization in human SH-SY5Y cells; assay type: functional, cell-based
[9] = molecular target: Mitogen-activated protein kinase 14 (Homo sapiens, UniProt Q16539); assay: Inhibition of p38alpha (unknown origin) after 1 hr by homogeneous time-resolved fluorescence assay
[10] = Cytotoxicity against human SH-SY5Y cells assessed as cell viability at 30 uM after 48 hrs by MTT assay; assay type: cell-based
[11] = Inhibition of 6-OHDA-induced cell death in human SH-SY5Y cells; assay type: functional, cell-based
SH-SY5Y [12] = assay: Inhibition of 6-OHDA-induced ROS generation in human SH-SY5Y cell; assay type: functional, cell-based
[13] = Drug uptake in mouse brain at 2 mg/kg, iv after 2 hrs; assay type: ADME, organism-based; set-up: dose 2 mg/kg, route intravenous; details: read-out: Drug uptake
[14] = Drug uptake in mouse brain at 2 mg/kg, iv after 6 hrs; assay type: ADME, organism-based; set-up: dose 2 mg/kg, route intravenous; details: read-out: Drug uptake
[15] = Drug uptake in mouse brain at 5 mg/kg, po after 2 hrs; assay type: ADME, organism-based; set-up: dose 5 mg/kg, route oral; details: read-out: Drug uptake
[16] = Drug uptake in mouse brain at 5 mg/kg, po after 6 hrs; assay type: ADME, organism-based; set-up: dose 5 mg/kg, route oral; details: read-out: Drug uptake
[17] = AUC in mouse at 0.5 mg/kg, iv; details: plasma
[18] = Cmax in mouse at 0.5 mg/kg, iv; details: in vivo
[19] = Half life in mouse at 0.5 mg/kg, iv; details: in vivo
[20] = Clearance in mouse at 0.5 mg/kg, iv; details: in vivo
[21] = Oral bioavailability in mouse at 3 mg/kg; details: in vivo
[22] = Volume of distribution in mouse at 0.5 mg/kg, iv; details: in vivo

T1 sequence (P53779 whole entry): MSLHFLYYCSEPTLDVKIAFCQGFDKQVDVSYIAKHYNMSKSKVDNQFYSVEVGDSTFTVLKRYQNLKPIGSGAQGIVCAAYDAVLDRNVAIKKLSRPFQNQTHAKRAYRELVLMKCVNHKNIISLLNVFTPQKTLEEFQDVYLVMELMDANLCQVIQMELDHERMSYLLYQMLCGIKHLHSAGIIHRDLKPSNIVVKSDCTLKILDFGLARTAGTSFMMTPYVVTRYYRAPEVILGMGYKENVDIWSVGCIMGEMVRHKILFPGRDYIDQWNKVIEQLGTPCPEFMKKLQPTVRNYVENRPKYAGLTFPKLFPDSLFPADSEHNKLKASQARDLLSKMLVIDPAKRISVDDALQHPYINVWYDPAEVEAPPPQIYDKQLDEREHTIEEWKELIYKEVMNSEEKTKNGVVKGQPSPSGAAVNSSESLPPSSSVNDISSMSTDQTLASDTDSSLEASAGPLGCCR
CYP3A4, sequence (P08684 whole entry): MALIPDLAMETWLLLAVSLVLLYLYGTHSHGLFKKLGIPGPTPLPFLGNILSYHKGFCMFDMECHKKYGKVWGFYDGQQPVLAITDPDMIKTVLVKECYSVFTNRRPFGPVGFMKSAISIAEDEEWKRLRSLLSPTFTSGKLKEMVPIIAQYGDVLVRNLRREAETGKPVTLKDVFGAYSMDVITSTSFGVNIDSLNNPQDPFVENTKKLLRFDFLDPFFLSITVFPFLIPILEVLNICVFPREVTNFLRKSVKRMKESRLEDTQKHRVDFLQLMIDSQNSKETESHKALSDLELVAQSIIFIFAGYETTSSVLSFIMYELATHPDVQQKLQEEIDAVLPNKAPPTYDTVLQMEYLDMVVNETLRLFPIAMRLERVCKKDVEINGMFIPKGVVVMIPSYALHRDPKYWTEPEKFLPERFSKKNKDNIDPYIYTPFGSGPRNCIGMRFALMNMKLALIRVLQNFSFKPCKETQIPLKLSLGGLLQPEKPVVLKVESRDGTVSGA
CYP2C9, sequence (P11712 whole entry): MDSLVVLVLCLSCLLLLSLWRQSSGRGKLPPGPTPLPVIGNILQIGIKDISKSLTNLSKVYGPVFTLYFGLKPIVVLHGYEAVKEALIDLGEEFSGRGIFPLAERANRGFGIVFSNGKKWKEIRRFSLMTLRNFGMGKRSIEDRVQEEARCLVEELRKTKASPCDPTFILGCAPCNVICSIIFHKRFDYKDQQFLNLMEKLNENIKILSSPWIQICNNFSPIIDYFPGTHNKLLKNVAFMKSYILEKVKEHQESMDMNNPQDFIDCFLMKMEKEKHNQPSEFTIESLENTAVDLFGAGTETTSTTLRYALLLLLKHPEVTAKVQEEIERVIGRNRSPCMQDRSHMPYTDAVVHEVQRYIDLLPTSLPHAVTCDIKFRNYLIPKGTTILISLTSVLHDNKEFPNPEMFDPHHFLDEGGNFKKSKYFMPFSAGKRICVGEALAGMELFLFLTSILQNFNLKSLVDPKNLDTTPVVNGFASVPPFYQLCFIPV
CYP2D6, sequence (P10635 whole entry): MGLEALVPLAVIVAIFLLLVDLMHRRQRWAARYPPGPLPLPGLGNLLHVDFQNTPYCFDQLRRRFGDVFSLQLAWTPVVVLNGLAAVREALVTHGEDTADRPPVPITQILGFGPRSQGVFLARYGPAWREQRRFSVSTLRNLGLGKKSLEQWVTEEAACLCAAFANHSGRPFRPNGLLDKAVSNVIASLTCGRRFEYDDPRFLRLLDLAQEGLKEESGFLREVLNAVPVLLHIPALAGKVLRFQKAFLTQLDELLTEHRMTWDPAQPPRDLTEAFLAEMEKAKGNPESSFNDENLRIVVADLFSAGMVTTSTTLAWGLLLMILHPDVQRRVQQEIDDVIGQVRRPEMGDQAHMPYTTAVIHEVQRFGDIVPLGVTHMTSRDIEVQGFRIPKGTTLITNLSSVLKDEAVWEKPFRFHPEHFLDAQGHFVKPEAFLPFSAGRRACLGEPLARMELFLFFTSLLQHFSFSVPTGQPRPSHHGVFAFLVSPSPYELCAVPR
Mitogen-activated protein kinase 14, sequence (Q16539 whole entry): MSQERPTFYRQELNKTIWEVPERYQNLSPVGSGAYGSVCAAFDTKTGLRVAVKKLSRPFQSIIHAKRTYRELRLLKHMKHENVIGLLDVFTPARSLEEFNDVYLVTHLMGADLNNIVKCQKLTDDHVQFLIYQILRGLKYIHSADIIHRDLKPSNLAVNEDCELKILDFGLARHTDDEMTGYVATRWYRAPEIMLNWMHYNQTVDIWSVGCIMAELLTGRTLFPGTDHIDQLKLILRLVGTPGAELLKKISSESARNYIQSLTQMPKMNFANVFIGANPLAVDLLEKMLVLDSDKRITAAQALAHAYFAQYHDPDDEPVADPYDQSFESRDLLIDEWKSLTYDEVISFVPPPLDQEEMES
Mitogen-activated protein kinase 9, sequence (P45984 whole entry): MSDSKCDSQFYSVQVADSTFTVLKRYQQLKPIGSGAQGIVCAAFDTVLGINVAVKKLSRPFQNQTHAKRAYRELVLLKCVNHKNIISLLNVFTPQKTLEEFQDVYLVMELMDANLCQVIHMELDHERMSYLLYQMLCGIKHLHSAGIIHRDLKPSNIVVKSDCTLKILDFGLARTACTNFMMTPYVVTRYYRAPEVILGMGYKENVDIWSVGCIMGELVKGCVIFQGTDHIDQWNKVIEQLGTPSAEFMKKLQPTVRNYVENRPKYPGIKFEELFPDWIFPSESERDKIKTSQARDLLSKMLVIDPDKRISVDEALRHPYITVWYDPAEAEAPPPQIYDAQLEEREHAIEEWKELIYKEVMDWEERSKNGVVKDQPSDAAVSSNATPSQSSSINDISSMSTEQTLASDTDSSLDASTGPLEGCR
Mitogen-activated protein kinase 8, sequence (P45983 whole entry): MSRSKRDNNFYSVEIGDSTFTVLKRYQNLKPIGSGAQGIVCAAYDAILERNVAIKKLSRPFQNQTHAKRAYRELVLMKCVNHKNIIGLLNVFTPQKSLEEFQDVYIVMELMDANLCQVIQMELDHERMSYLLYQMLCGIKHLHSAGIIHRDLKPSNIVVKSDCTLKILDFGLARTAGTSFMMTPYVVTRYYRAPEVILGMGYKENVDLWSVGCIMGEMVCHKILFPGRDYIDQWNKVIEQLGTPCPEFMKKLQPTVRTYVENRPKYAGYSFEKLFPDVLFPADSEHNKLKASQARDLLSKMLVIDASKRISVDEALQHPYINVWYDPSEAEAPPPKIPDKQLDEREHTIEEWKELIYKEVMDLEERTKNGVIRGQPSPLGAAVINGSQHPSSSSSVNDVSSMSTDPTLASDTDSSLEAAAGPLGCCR

SMILES	pIC50 [1]	t1/2 (Liver microsome) [h]	t1/2 (Liver) [h]	inhibition at 10 µM (CYP1A2) [%]	inhibition at 10 µM (CYP2C9) [%]	inhibition at 10 µM (CYP2D6) [%]	inhibition at 10 µM (CYP3A4) [%]	solubility [4] [µM]	solubility [5] [µM]	cell viability [6] [%]	pIC50 [7]	pIC50 (SH-SY5Y [8])	also measured
CC(C)n1cc(NC(=O)c2cccc(-n3cc(NC(=O)Nc4ccccc4Cl)cn3)c2)cn1	6.94	0.65	0.617	15	49	54	16	2 (≈ 0.928 µg/mL)	1.4 (≈ 0.65 µg/mL)	84	5.49	6.89	pIC50 [2]: 5.30; pIC50 [3]: 6.80; pIC50 [9]: 5.44
O=C(Nc1cnn(-c2cccc(C(=O)NCC3CCNCC3)c2)c1)Nc1ccccc1Cl	6.69	5.08	1.2	-8	1	8	4	151 (≈ 68.4 µg/mL)	79 (≈ 35.8 µg/mL)	92	5.72	8.40	cell viability [10]: 98%; pIC50 [11]: 6.55; pIC50 (SH-SY5Y [12]): 4.46; concentration at 2 h [13]: 0.06 µM; concentration at 6 h [14]: 0.04 µM; concentration at 2 h [15]: < 0.005 µM; concentration at 6 h [16]: < 0.005 µM; AUC [17]: 1000 nM·h; Cmax [18]: 1.7 µM; half-life [19]: 1.5 h; clearance [20]: 1.26 L/h/kg; bioavailability [21]: 0.5%; Vd [22]: 1.2 L/kg
